According to PubChem BioAssay (NCI):
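Cells were grown in 96-well plates and exposed to each compound for 48 hours at five concentrations; endpoints were interpolated linearly between bracketing concentrations, or set to the highest concentration if not reached. TGI: concentration producing complete growth inhibition.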

Tests used:
Test in all cases: DTP human tumour cell line panel, 48 h
[1] = system: NCI-H460 lung
[2] = system: OVCAR-3 ovarian
[3] = system: EKVX NSCLC
[4] = system: NCI-H522 lung
[5] = system: MALME-3M melanoma
[6] = system: KM12 colon
[7] = system: OVCAR-8 ovarian
[8] = system: A549 NSCLC
[9] = system: UO-31 renal
[10] = system: PC-3 prostate

Compound | TGI [1] [µM] | TGI [2] [µM] | TGI [3] [µM] | TGI [4] [µM] | TGI [5] [µM] | TGI [6] [µM] | TGI [7] [µM] | TGI [8] [µM] | TGI [9] [µM] | TGI [10] [µM]
OCCN1CCN2C=C(C3CCCC4N(CCO)CCN34)CCC21 (configuration not stated) | > 100 | > 100 | > 100 | > 70 | > 100 | > 100 | > 100 | > 100 | > 100 | 
CSc1ccc(/C=C2\N=C(c3ccccc3)N(c3nc4cc(C)c(C)cc4s3)C2=O)cc1 | > 100 | 77.4 | 85.9 |  |  | > 100 | 43.9 | 89.7 | > 100 | 49.3
CC(C)Cc1cc2c(cc1O)CCC1C2CC[C@@]2(C)C1CC[C@@H]2O (some centres not stated) | 25.5 | 16.6 | 26.3 | 26 | 37 | 17.4 | 22.3 | 21.4 | 13.4 | 21
COc1ccccc1/C=C1\NC(=S)N(/C=C2\C(=O)Oc3ccccc3C2=O)C1=O | > 100 | > 100 | > 100 | > 100 |  | > 100 | > 100 | > 100 | 82.9 | > 100
CSc1nc2c(ncn2C2OCC(O)C(O)C2O)c(=O)n1C (configuration not stated) | > 100 | > 100 | > 100 | > 100 | > 100 | > 100 | > 100 | > 100 | > 100 | 
O=C(C/C(=N/O)c1cc(-c2ccccc2)no1)c1ccccc1 | > 100 | 41.9 | > 100 | 37.2 | > 100 | > 100 | 40.3 | > 100 | > 100 | > 100
O=C(O)CCCc1ccc2ccccc2c1 | > 100 | > 100 | > 100 | > 100 |  | > 100 | > 100 | > 100 | > 100 | > 100
CN1CCC2(CC1)C(=NC1CCCCC1)NC(=S)N2c1ccccc1 | > 100 |  | > 100 |  | > 100 | > 100 | > 100 | > 100 | > 100 | 
O=C(O)CC(Sc1ccccc1)c1ccccc1 (configuration not stated) |  | > 100 | > 100 | > 100 | > 100 | > 100 | > 100 | > 100 | > 100 | > 100
COP(=O)(OC)C(O)CC(C)C (configuration not stated) | > 100 | > 100 | > 100 |  |  | > 100 |  | > 100 | > 100 | > 100
O=C(CSc1nc2ccc(I)cc2c(=O)n1Cc1ccccc1)NNC(=O)c1ccccc1 | > 100 | 90.4 | 17.9 | 25.8 |  | > 100 | 20.7 | 32.6 | 2.73 | 24
O=C(c1ccc(Cl)cc1)N(C(=S)OCc1ccccn1)c1ccccc1 |  | > 100 | 84.4 |  | > 100 | > 100 | > 100 |  | > 100 | > 100
CCOC(=O)c1[nH]cc(C)c1-c1ccc2c(-c3ccccc3)nc3ccccc3n12 | 12 | 18.5 | 18.2 | 4.79 |  | 13.3 | 16.7 | 18.5 | 14.5 | 12.8
C/C(=N\Nc1nc2cccnc2s1)c1ccccn1 | > 100 |  | 5.73 |  | 42 | > 33.6 | 0.0147 | > 34.8 | 0.307 | 30.6
COC(=O)C1=C(C(=O)OC)SC2(S1)C(C(=O)OC)=C(C(=O)OC)Sc1c2ssc1=Nc1ccc(Cl)cc1 | 1.37 | 2.71 | 2.8 |  |  | 2.11 | 3.25 | 3.13 | 2.01 | 1.71
C=C[C@]1(C)CCC2=C(CCC3C2(C)CCC[C@@]3(C)COC(C)=O)C1 (some centres not stated) | 32.2 | 32.1 | 36.8 | 28.7 | 62.4 | 34.7 | 34.6 | 52.5 | 33.4 | 
Cc1c2ccncc2c(C)c2c1[nH]c1ccc(OCC(F)(F)F)cc12 | 2.46 | 3.29 | 3.09 | 3.22 | 3.23 | 2.79 | 2.59 | 3.3 | 3.16 | 
CC(=O)OC1COC(N2C(=O)C(=O)c3cc(Br)ccc32)C(OC(C)=O)C1OC(C)=O (configuration not stated) | > 100 | > 100 | > 100 | > 100 | > 100 | > 100 | > 100 | > 100 | > 100 | 
O=Cc1ccc(CCl)cc1 | 37.1 | 34.9 | > 100 | 35.9 |  | 60.3 | 35.2 | > 100 | 34.8 | 
CCCCCC/C=C1\CCC(CN2CCOCC2)C1=O (configuration not stated) | > 66 | 32.7 | 19.1 | 19.4 | 30.6 | 24.7 | 32.7 | > 67.3 | 27.5 | 
O=C(OCc1ccccc1)N(CCCCN(CCCNCc1ccccc1)C(=O)OCc1ccccc1)CCCNCc1ccccc1 | 0.372 |  | 2.94 |  | 3.29 | 1.6 | 2.79 |  | 2.75 | 2.61
O=c1[nH]c(=O)n(C2OC(CO)C(O)C2O)cc1Oc1ccccc1 (configuration not stated) | > 100 | > 100 | > 100 | > 100 | > 100 | > 100 | > 100 | > 100 |  | > 100
CC(=O)OC12c3ccccc3-c3ccccc3C1C1C(=O)OC(=O)C12 (configuration not stated) | > 10 | > 10 | > 10 | > 10 | > 10 | > 10 | > 10 |  | > 10 | > 10
